Source: PMC11542736 (Cell reports. Physical science, 2024)

Target: TrpR^WT (Escherichia coli, UniProt P0A881)
Assay: Ptrp-GFP reporter, flow cytometry
Format: cell-based
Conditions: 1 mM ligand, E. coli Nissle 1917 trpR knockout, 37 °C, 8 h; derepression

O=C(O)Cc1c[nH]c2ccccc12 [IAA, indole-3-acetic acid]
Ptrp-GFP reporter, flow cytometry: IPA, IAA, and IAld
